In patent US20260001898A1, “Heteroaryl compounds as inhibitors of TYK2/JAK1, composition and application thereof” (Accro Bioscience (HK) Limited, priority 2022, published 2026):

Experiments:
Type in all cases: cell-based
JAK1/JAK2 pathway = test: Western blot p-STAT1/STAT1 in IFN-γ-stimulated HT-29 cells; details: IFN-γ 100 ng/mL
Procedure: HT-29 cells were digested by trypsin and suspended in Dulbecco's Modified Eagle Medium (DMEM) and counted. The tested compounds were added into the 6 well plates (400 000/per well). After 2 hours, IFN-γ (100 ng/mL) was added to stimulate cells for 30 minutes. The cells were collected and lysed with protein lysate. The protein was quantitatively tested by BCA kit. Finally, p-STAT1/STAT1 and internal reference protein β-actin were detected by Western blot.

[1] = test system: IFNα induced TYK2/JAK1 mediated STAT activation; test: Luciferase assay in L929 ISRE cells stimulated with IFN-α; details: Mus musculus, IFN-α 100 ng/mL; for inhibition at 0.05 µM: 50 nM compound, read-out: Inhibitory activity % (50 nM); for inhibition at 0.2 µM: 200 nM compound, read-out: Inhibitory activity % (200 nM); for inhibition at 1 µM: 1000 nM compound, read-out: Inhibitory activity % (1000 nM)
Procedure: • 1. L929 ISRE cells (5000 cells/well) were seeded on 96-well plates and incubated overnight at room temperature-; • 2. The cells were pretreated by adding different concentrations (10 nM, 50 nM, 100 nM, 200 nM or 1000 nM) of the test compounds for 2 hours; • 3. Added IFN-α (100 ng/mL) to stimulate cells for 6 hours; • 4. Removed the upper medium, add PBS (100 μL) and washed, then removed PBS; • 5. Added PLB lysis solution (50 μL) to each well, shook the well for 15 minutes; • 6. Transferred PLB lysis solution (30 μL) to a new 96-well whiteboard, added LAR II reagent (LAR II), then quickly read the 450 nm OD value with a plate washer; • 7. Added Stop & Glo reagent (30 μL), then read the 450 nm OD value using the plate washer. • 8. The final result was the OD value in step 6/OD value in step 7.

JAK2/JAK2 pathway = test: Western blot p-STAT3/STAT3 in TPO-stimulated HEL cells; details: TPO 100 ng/mL
Procedure: HEL cells were digested by trypsin, re-suspended in 1640 medium and counted. The compounds to be measured were added to 6 well plates (1 million/per well) for 2 hours, and then thrombopoietin (TPO)(final concentration: 100 ng/mL) was added to stimulate cells for 30 minutes. The cells were collected and lysed with protein lysate. The protein was quantitatively tested by bicinchoninic acid (BCA) kit. Finally, p-STAT3/STAT3 and internal reference protein β-actin were detected by Western blot.

Compound	effect on downstream STAT1 phosphorylation induced by IFN-γ (JAK1/JAK2 pathway) (JAK1/JAK2 pathway)	inhibition at 0.05 µM [1] [%]	inhibition at 0.2 µM [1] [%]	inhibition at 1 µM [1] [%]	effect on TPO-induced downstream STAT3 phosphorylation (JAK2/JAK2 pathway) (JAK2/JAK2 pathway)
COc1c(Nc2cc(NC(=O)C3CC3)ncc2C(N)=O)cccc1-c1cc(P(=O)(C2CC2)C2CC2)n(C)n1 [Compound A2, 6-(cyclopropanecarboxamido)-4-((3-(5-(dicyclopropylphosphoryl)-1-methyl-1H-pyrazol-3-yl)-2-methoxyphenyl)amino)nicotinamide]	inhibited JAK1/JAK2 pathway in a concentration-dependent manner	26	57	94	–
COc1c(Nc2cc(NC(=O)C3CC3)ncc2C(N)=O)cccc1-c1ccc(P(C)(C)=O)cc1 [Compound A61, 6-(cyclopropanecarboxamido)-4-((4′-(dimethylphosphoryl)-2-methoxy-[1,1′-biphenyl]-3-yl)amino)nicotinamide]	–	8	23	59	–
COc1c(Nc2cc(NC(=O)C3CC3)ncc2C(N)=O)cccc1-c1ccc(P(C)(C)=O)nc1 [Compound A62]	–	3	5	56	–
COc1c(Nc2cc(NC(=O)C3CC3)ncc2C(N)=O)cccc1-c1cnc(P(C)(C)=O)cn1 [Compound A63, 6-(cyclopropanecarboxamido)-4-((3-(5-(dimethylphosphoryl)pyrazin-2-yl)-2-methoxyphenyl)amino)nicotinamide]	–	33	43	75	–
COc1cccnc1Nc1cc(Nc2cccc(-c3cc(P(=O)(C4CC4)C4CC4)n(C)n3)c2OC)c(C(N)=O)nn1 [Compound A65]	–	36	43	93	–
COc1ccnc(Nc2cc(Nc3cccc(-c4cc(P(=O)(C5CC5)C5CC5)n(C)n4)c3OC)c(C(N)=O)nn2)c1 [Compound A66]	–	59	82	96	–
COc1cccc(Nc2cc(Nc3cccc(-c4cc(P(=O)(C5CC5)C5CC5)n(C)n4)c3OC)c(C(N)=O)nn2)n1 [Compound A67]	–	88	95	95	–
COc1cc(P(=O)(C2CC2)C2CC2)ccc1Nc1cc(Nc2cc(C)ccn2)nnc1C(N)=O [Compound B1, 4-((4-(dicyclopropylphosphoryl)-2-methoxyphenyl)amino)-6-((4-methylpyridin-2-yl)amino)pyridazine-3-carboxamide]	–	–	–	0	–
CCP(=O)(CC)c1ccc(Nc2cc(NC(=O)C3CC3)ncc2C(N)=O)c(OC)c1 [Compound B3, 6-(cyclopropanecarboxamido)-4-((4-(diethylphosphoryl)-2-methoxyphenyl)amino)nicotinamide]	–	–	–	19	–
COc1cc(P(=O)(C2CC2)C2CC2)ccc1Nc1cc(Nc2ccccn2)nnc1C(N)=O [Compound B4]	–	–	–	8	–
COc1cc(P(=O)(C2CC2)C2CC2)ccc1Nc1cc(NC(=O)C2CC2)nnc1C(N)=O [Compound B5]	–	–	–	0	–
COc1cc(P(=O)(C2CC2)C2CC2)ccc1Nc1cc(Nc2ccn(C)n2)nnc1C(N)=O [Compound B7]	–	–	–	0	–
N#CC[C@H](C1CCCC1)n1cc(-c2ncnc3[nH]ccc23)cn1 [Ruxolitinib, reference compound]	inhibited JAK1/JAK2 pathway in a concentration-dependent manner	–	–	–	can inhibit the JAK2/JAK2 pathway
